Experiments:
[1] = target: Sodium-dependent serotonin transporter (Rattus norvegicus, UniProt P31652); test: Inhibition of reuptake of [3H]5-HT at serotonin transporter
[2] = target: Norepinephrine transporter (Rattus norvegicus, UniProt Q9WTR4); test: Inhibition of reuptake of [3H]-NE at Norepinephrine transporter
[3] = target: Sodium-dependent dopamine transporter (Rattus norvegicus, UniProt P23977); test: Inhibition of reuptake of [3H]DA at Dopamine transporter (DAT)
[4] = target: T1, Sodium-dependent noradrenaline transporter (Homo sapiens, UniProt P23975); test: Compound was evaluated for inhibition of [3H]NE uptake in HEK-hNET cells expressing Human norepinephrine transporter; type: cell-based
T1 sequence (P23975 whole entry): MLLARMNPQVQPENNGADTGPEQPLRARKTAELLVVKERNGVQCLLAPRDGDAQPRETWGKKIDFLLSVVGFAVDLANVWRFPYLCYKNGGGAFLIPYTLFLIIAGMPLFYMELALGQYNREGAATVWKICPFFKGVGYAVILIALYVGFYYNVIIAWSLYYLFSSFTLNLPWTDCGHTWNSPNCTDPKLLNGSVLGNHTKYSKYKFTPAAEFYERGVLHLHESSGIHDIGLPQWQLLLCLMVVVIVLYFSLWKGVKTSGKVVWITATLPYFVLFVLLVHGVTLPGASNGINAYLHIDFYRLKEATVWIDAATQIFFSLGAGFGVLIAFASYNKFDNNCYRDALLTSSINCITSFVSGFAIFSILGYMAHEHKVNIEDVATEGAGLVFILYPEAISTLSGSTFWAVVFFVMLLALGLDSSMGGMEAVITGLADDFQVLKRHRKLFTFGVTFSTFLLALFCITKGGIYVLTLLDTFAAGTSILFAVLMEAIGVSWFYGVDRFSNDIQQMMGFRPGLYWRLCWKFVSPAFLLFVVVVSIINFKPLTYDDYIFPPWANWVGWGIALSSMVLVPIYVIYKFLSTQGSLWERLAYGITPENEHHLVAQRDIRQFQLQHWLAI

[5] = target: T2, Sodium-dependent serotonin transporter (Homo sapiens, UniProt P31645); test: Compound was evaluated for inhibition of [3H]5-HT uptake in HEK-hSERT cells expressing Human serotonin transporter; type: cell-based
T2 sequence (P31645 whole entry): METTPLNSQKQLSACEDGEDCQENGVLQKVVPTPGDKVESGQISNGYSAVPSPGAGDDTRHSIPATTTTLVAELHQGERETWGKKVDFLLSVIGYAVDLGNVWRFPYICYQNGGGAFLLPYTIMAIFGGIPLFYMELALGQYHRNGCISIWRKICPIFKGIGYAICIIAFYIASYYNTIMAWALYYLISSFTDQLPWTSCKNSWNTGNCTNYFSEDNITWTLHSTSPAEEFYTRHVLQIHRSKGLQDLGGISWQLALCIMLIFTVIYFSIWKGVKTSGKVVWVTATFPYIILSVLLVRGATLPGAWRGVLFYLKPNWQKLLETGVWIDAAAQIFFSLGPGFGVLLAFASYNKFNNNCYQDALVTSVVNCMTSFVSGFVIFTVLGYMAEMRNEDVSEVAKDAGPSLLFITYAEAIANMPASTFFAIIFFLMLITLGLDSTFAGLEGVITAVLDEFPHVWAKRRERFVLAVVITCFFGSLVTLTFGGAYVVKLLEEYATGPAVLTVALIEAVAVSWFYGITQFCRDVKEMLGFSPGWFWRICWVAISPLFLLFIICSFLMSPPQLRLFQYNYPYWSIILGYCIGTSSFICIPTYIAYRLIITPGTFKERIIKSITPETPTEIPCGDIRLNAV

[6] = target: T3, Sodium-dependent dopamine transporter (Homo sapiens, UniProt Q01959); test: Compound was evaluated for inhibition of [3H]DA uptake in HEK-hDAT cells expressing Human dopamine Transporter; type: cell-based
T3 sequence (Q01959 whole entry): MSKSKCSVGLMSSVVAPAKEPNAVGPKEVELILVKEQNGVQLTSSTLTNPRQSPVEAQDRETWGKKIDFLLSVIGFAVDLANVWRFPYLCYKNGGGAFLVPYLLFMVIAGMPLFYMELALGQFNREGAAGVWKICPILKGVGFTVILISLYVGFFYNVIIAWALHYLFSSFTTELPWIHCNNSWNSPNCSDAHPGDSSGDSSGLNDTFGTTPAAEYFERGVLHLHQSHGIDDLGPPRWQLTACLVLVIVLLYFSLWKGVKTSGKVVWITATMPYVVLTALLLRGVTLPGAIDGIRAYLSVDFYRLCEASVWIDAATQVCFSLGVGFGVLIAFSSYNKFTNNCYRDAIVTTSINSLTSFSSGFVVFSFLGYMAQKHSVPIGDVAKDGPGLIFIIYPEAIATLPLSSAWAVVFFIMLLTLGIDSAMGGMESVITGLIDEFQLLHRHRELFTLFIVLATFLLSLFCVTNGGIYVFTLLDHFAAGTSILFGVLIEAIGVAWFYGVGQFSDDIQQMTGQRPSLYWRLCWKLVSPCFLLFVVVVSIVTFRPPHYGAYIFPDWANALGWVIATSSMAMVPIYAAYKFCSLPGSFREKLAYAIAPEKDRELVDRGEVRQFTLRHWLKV

[7] = target: T2, Sodium-dependent serotonin transporter; test: Compound was evaluated for binding affinity using [125I]RTI-55 as a radioligand in HEK-hSERT cells expressing human serotonin transporter; type: cell-based
[8] = target: T3, Sodium-dependent dopamine transporter; test: Compound was evaluated for binding affinity to dopamine transporter using [125I]RTI-55 as a radioligand in HEK cells expressing human transporters.; type: cell-based, HEK293
[9] = target: T1, Sodium-dependent noradrenaline transporter; test: Compound was evaluated for binding affinity using [125I]RTI-55 as a radioligand in HEK-hNET cells expressing human norepinephrine transporter; type: cell-based

Chain of Norepinephrine transporter (Q9WTR4 whole entry): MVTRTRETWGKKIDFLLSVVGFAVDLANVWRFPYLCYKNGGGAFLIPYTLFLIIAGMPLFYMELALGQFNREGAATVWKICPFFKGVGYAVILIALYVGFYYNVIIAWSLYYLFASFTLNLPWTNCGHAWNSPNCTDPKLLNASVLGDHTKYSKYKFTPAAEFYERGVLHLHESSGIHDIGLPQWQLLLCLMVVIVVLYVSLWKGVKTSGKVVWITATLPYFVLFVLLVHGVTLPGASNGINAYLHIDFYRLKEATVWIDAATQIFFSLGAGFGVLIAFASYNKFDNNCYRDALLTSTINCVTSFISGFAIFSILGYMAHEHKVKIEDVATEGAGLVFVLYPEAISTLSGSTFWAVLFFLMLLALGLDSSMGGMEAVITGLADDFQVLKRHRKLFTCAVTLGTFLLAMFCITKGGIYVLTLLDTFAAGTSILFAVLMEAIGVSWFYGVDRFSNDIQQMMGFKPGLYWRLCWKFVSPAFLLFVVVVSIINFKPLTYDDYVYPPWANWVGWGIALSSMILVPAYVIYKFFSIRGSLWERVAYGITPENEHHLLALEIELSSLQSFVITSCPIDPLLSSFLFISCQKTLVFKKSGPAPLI
Chain of Sodium-dependent dopamine transporter (Rattus norvegicus, UniProt P23977) (P23977 whole entry): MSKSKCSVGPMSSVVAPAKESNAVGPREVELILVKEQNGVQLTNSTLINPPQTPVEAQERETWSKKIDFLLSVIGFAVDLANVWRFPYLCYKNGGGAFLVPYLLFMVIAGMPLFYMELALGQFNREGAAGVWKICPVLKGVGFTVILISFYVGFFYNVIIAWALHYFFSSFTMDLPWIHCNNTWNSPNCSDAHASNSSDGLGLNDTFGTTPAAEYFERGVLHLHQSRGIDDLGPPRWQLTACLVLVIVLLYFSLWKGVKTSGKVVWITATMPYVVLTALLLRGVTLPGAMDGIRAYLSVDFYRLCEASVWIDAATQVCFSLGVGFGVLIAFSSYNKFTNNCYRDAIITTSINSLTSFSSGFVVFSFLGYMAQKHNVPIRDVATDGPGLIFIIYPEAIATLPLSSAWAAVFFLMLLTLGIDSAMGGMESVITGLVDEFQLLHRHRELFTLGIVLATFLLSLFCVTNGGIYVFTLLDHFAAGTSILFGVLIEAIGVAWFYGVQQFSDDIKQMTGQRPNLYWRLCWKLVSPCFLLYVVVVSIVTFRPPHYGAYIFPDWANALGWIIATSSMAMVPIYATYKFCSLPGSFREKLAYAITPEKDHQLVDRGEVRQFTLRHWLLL
Chain of Sodium-dependent serotonin transporter (Rattus norvegicus, UniProt P31652) (P31652 whole entry): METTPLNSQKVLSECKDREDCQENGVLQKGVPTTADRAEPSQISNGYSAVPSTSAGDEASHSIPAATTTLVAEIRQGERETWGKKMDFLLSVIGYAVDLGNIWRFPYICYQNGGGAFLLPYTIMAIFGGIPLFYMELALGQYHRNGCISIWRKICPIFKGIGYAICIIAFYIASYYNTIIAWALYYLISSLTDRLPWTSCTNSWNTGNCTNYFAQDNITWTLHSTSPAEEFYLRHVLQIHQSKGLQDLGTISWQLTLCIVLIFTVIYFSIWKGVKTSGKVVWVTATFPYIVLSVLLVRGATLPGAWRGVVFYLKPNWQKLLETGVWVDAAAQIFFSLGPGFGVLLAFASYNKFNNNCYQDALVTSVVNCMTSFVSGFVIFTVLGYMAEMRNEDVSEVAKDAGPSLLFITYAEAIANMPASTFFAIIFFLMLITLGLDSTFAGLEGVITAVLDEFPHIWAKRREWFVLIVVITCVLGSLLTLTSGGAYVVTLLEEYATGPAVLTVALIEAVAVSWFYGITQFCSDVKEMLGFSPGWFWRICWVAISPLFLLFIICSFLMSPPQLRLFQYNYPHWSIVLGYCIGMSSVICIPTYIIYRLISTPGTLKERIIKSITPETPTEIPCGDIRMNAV

## COC(=O)[C@H]1C2CC[C@@H]3C[C@@H]1/C(=C/c1ccc(OC)cc1)CN23
[1]
  Ki: 56 nM
[2]
  Ki: 187 nM
[3]
  Ki: 3130 nM
[4]
  Ki: 208 nM
[5]
  Ki: 53 nM
[6]
  Ki: 3700 nM
[7]
  Ki: 42 nM
[8]
  Ki: 3600 nM
[9]
  Ki: 5440 nM

## COC(=O)[C@H]1C2CC[C@@H]3C[C@@H]1/C(=C/c1ccoc1)CN23
[1]
  Ki: 498 nM
[2]
  Ki: 164 nM
[3]
  Ki: 1880 nM

## COC(=O)[C@H]1C2CC[C@@H]3C[C@@H]1/C(=C/c1cccs1)CN23
[1]
  Ki: 2050 nM
[2]
  Ki: 26 nM
[3]
  Ki: 268 nM

## COC(=O)[C@H]1C2CC[C@@H]3C[C@@H]1/C(=C/c1cccc4ccccc14)CN23
[1]
  Ki: 121 nM
[2]
  Ki: 5370 nM
[3]
  Ki: 9720 nM

## COC(=O)[C@H]1C2CC[C@@H]3C[C@@H]1/C(=C/c1ccc(F)cc1)CN23
[1]
  Ki: 335 nM
[2]
  Ki: 584 nM
[3]
  Ki: 6620 nM

## COC(=O)[C@H]1C2CC[C@@H]3C[C@@H]1/C(=C\c1ccccc1)CN23
[1]
  Ki: 7480 nM
[2]
  Ki: 1530 nM
[3]
  Ki: 5070 nM

## COC(=O)[C@H]1C2CC[C@@H]3C[C@@H]1/C(=C/c1ccc(Cl)c(Cl)c1)CN23 (stereo in doubt; 5b)
[1]
  Ki: 20 nM
[2]
  Ki: 1000 nM
[3]
  Ki: 1920 nM
[4]
  Ki: 640 nM
[5]
  Ki: 30 nM
[6]
  Ki: > 10000 nM
[7]
  Ki: 0.56 nM
[8]
  Ki: 3320 nM
[9]
  Ki: 3770 nM

## CC(=O)OC[C@H]1C2CC[C@@H]3C[C@@H]1/C(=C/c1ccccc1)CN23
[1]
  Ki: 1050 nM
[2]
  Ki: 450 nM
[3]
  Ki: 1030 nM

## OC[C@H]1C2CC[C@@H]3C[C@@H]1/C(=C/c1ccc(Cl)c(Cl)c1)CN23
[1]
  Ki: 96 nM
[2]
  Ki: 10500 nM
[3]
  Ki: 21300 nM

## COC(=O)[C@H]1C2CC[C@@H]3C[C@@H]1/C(=C/c1ccc(-c4ccccc4)cc1)CN23
[1]
  Ki: 614 nM
[2]
  Ki: 12 nM
[3]
  Ki: 477 nM

## COC(=O)[C@H]1C2CC[C@@H]3C[C@@H]1/C(=C/c1ccco1)CN23
[1]
  Ki: 3680 nM
[2]
  Ki: 111 nM
[3]
  Ki: 2020 nM

## COC(=O)[C@H]1C2CC[C@@H]3C[C@@H]1/C(=C/c1ccccc1)CN23
[1]
  Ki: 1140 nM
[2]
  Ki: 53 nM
[3]
  Ki: 481 nM
[4]
  Ki: 68 nM
[5]
  Ki: 2400 nM
[6]
  Ki: 910 nM
[7]
  Ki: 2330 nM
[8]
  Ki: 1570 nM
[9]
  Ki: 1040 nM

## OC[C@H]1C2CC[C@@H]3C[C@@H]1/C(=C/c1ccccc1)CN23
[1]
  Ki: 5300 nM
[2]
  Ki: 2830 nM
[3]
  Ki: 9690 nM
